Experimental findings from patent US9096560B2, “5-heterocyclylalkyl-3-hydroxy-2-phenylcyclopent-2-enones as herbicides” (Syngenta Limited, priority 2008, dated 2015) are described below.

Assay type in all cases: in vivo
The subject of experiment [1] is Lolium perenne (LOLPE). Description: Example B post-emergence herbicidal test, LOLPE. Particulars: Lolium perenne, 312 h, rate 250 g/ha, evaluated after 13 days, scale 0-100, read-out: Post-emergence activity LOLPE (100=total damage to plant; 0=no damage to plant). A digest of the protocol:
(§1)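 Plants grown from seed in standard soil for 8 days in a glasshouse (24/16 °C day/night, 14 h light, 65% humidity), then sprayed with an aqueous solution from the active ingredient formulated in acetone/water (50:50) with 0.5% Tween 20. Damage scored after 13 days, 0 (none) to 100 (total).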

Experiment [2] has as its system Avena fatua (AVEFA). Put plainly: Example B pre-emergence herbicidal test, AVEFA. Particulars: Avena fatua, 312 h, rate 250 g/ha, evaluated after 13 days, 100=total damage to plant, 0=no damage to plant. A digest of the protocol:
(§2)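 After sowing in standard soil, pots spent a day in the glasshouse (24/16° C, 14 h photoperiod, 65% humidity) before spraying with compound in acetone/water 50:50 with 0.5% Tween 20. Watering followed twice a day, and plants were evaluated 13 days on, with 100 meaning complete damage.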

Experiment [3] has as its system Echinochloa crus-galli (ECHCG). Put plainly: Example B post-emergence herbicidal test, ECHCG. Particulars: Echinochloa crus-galli, 312 h, rate 250 g/ha, evaluated after 13 days, scale 0-100, read-out: Post-emergence activity ECHCG (100=total damage to plant; 0=no damage to plant). A digest of the protocol:
as §1

Experiment [4] relates to Alopecurus myosuroides (ALOMY). Put plainly: Example B post-emergence herbicidal test, ALOMY. Particulars: Alopecurus myosuroides, 312 h, rate 250 g/ha, evaluated after 13 days, scale 0-100, read-out: Post-emergence activity ALOMY (100=total damage to plant; 0=no damage to plant). The method, boiled down:
as §1

Experiment [5] has as its system Echinochloa crus-galli (ECHCG). Put plainly: Example B pre-emergence herbicidal test, ECHCG. Particulars: Echinochloa crus-galli, 312 h, rate 250 g/ha, evaluated after 13 days, 100=total damage to plant, 0=no damage to plant. A digest of the protocol: as §2
Experiment [6] has as its system Avena fatua (AVEFA). Description: Example B post-emergence herbicidal test, AVEFA. Particulars: Avena fatua, 312 h, rate 250 g/ha, evaluated after 13 days, scale 0-100, read-out: Post-emergence activity AVEFA (100=total damage to plant; 0=no damage to plant). The method, boiled down:
as §1

For experiment [7], the system named is Lolium perenne (LOLPE). Description: Example B pre-emergence herbicidal test, LOLPE. Conditions: Lolium perenne, 312 h, rate 250 g/ha, evaluated after 13 days, 100=total damage to plant, 0=no damage to plant. A digest of the protocol:
as §2

Experiment [8] relates to Alopecurus myosuroides (ALOMY). Put plainly: Example B pre-emergence herbicidal test, ALOMY. Conditions: Alopecurus myosuroides, 312 h, rate 250 g/ha, evaluated after 13 days, 100=total damage to plant, 0=no damage to plant. The method, boiled down: as §2

Turning to `CCCCS(=O)(=O)N1CCC(CC2CC(=O)C(c3c(C)cc(C)cc3C)C2=O)CC1` (stereo not shown) [Compound T96], the pest or weed control at 250 g/ha in experiment [1] is 60%; in experiment [2], 10%; in experiment [3] it was 40%; in experiment [4], 60%; in experiment [5], 20%; in experiment [6], 40%. Further, the pest or weed control at 250 g/ha in experiment [7] came out at 60%; in experiment [8], 20%.
For the compound `COc1ccc(C(=O)N2CCC(CC3CC(=O)C(c4c(C)cc(C)cc4C)C3=O)CC2)cc1` (stereo not shown) [Compound T97], the pest or weed control at 250 g/ha is 60% in experiment [1]; 30% in experiment [2]; 80% in experiment [3]; 70% in experiment [4]; 60% in experiment [5]; 70% in experiment [6]. Also, the pest or weed control at 250 g/ha in experiment [7] was determined as 70%; in experiment [8] it was 30%.
Consider `Cc1cc(C)c(C2C(=O)CC(CC3CCN(C(=O)c4ccc(C(F)(F)F)cc4)CC3)C2=O)c(C)c1` (stereo not shown) [Compound T99], for which the pest or weed control at 250 g/ha worked out at 50% in experiment [1]; 30% in experiment [2]; 90% in experiment [3]; 70% in experiment [4]; 60% in experiment [5]; 90% in experiment [6]. Besides, the pest or weed control at 250 g/ha worked out at 60% in experiment [7] and 20% in experiment [8].
`Cc1cc(C)c(C2C(=O)CC(CC3CCN(C(=O)N4CCOCC4)CC3)C2=O)c(C)c1` (stereo not shown) [Compound T100]: the pest or weed control at 250 g/ha in experiment [1] was 80%; in experiment [2] it was 60%; in experiment [3], 60%; in experiment [4], 90%; in experiment [5] it was 70%; in experiment [6], 90%. The pest or weed control at 250 g/ha in experiment [7] was determined as 90%; in experiment [8], 60%.
Consider `C=CCOC(=O)N1CCC(CC2CC(=O)C(c3c(C)cc(C)cc3C)C2=O)CC1` (stereo not shown) [Compound T101], for which the pest or weed control at 250 g/ha in experiment [1] was found to be 40%; in experiment [2], 30%; in experiment [3] it was 20%; in experiment [4], 40%; in experiment [5] it was 50%; in experiment [6], 40%. For the same compound, the pest or weed control at 250 g/ha in experiment [7] came out at 50%; in experiment [8] it was 20%.
On to `C=COC(=O)N1CCC(CC2CC(=O)C(c3c(C)cc(C)cc3C)C2=O)CC1` (stereo not shown) [Compound T102], for which the pest or weed control at 250 g/ha in experiment [1] was 80%; in experiment [2] it was 30%; in experiment [3], 40%; in experiment [4], 90%; in experiment [5], 50%; in experiment [6] it was 90%. Further, the pest or weed control at 250 g/ha amounted to 70% in experiment [7] and 50% in experiment [8].
Regarding `Cc1cc(C)c(C2C(=O)CC(CC3CCN(C(=O)OCCCl)CC3)C2=O)c(C)c1` (stereo not shown) [Compound T103], the pest or weed control at 250 g/ha in experiment [1] amounted to 50%; in experiment [2], 20%; in experiment [3] it was 30%; in experiment [4], 50%; in experiment [5] it was 10%; in experiment [6], 60%. The pest or weed control at 250 g/ha in experiment [7] and in experiment [8] was 30% in each case.
`CC(C)=CC(=O)N1CCC(CC2CC(=O)C(c3c(C)cc(C)cc3C)C2=O)CC1` (stereo not shown) [Compound T104]: the pest or weed control at 250 g/ha in experiment [1] turned out to be 80%; in experiment [2], 60%; in experiment [3] it was 70%; in experiment [4], 70%; in experiment [5], 90%; in experiment [6], 90%. Moreover, the pest or weed control at 250 g/ha in experiment [7] came out at 70%; in experiment [8], 60%.
For the compound `Cc1cc(C)c(C2C(=O)CC(CC3CCN(C(=O)C(Cl)(Cl)Cl)CC3)C2=O)c(C)c1` (stereo not shown) [Compound T105], the pest or weed control at 250 g/ha in experiment [1] was determined as 50%; in experiment [2], 30%; in experiment [3] it was 30%; in experiment [4] it was 30%; in experiment [5] it was 40%; in experiment [6], 40%. The results for the pest or weed control at 250 g/ha in experiment [7] and in experiment [8] were 60% and 20%, respectively.
As to `Cc1cc(C)c(C2C(=O)CC(CC3CCN(C(=O)c4cc(F)c(Cl)nc4Cl)CC3)C2=O)c(C)c1` (stereo not shown) [Compound T106], the pest or weed control at 250 g/ha in experiment [1] amounted to 30%; in experiment [2], 30%; in experiment [3] it was 30%; in experiment [4], 40%; in experiment [5] it was 20%; in experiment [6] it was 10%. Also, the pest or weed control at 250 g/ha in experiment [7] and in experiment [8] was 20% each time.
For the compound `Cc1cc(C)c(C2C(=O)CC(CC3CCN(C(=O)OC(C)C)CC3)C2=O)c(C)c1` (stereo not shown) [Compound T107], the pest or weed control at 250 g/ha turned out to be 90% in experiment [1]; 60% in experiment [2]; 60% in experiment [3]; 70% in experiment [4]; 70% in experiment [5]; 90% in experiment [6]. Besides, the figures for the pest or weed control at 250 g/ha in experiment [7] and in experiment [8] were 70% and 80%, respectively.
For `CCOC(=O)N1CCC(CC2CC(=O)C(c3c(C)cc(C)cc3C)C2=O)CC1` (stereo not shown) [Compound T108], the pest or weed control at 250 g/ha in experiment [1] turned out to be 70%; in experiment [2], 40%; in experiment [3], 40%; in experiment [4], 70%; in experiment [5], 60%; in experiment [6] it was 70%. Further, the pest or weed control at 250 g/ha in experiment [7] is 50%; in experiment [8], 10%.
Take `Cc1cc(C)c(C2C(=O)CC(CC3CCN(C(=O)c4cccs4)CC3)C2=O)c(C)c1` (stereo not shown) [Compound T110]: the pest or weed control at 250 g/ha in experiment [1] is 50%; in experiment [2], 30%; in experiment [3], 40%; in experiment [4], 30%; in experiment [5], 70%; in experiment [6] it was 80%. Further, the pest or weed control at 250 g/ha in experiment [7] turned out to be 50%; in experiment [8], 30%.
On to `Cc1cc(C)c(C2C(=O)CC(CC3CCN(S(=O)(=O)C(F)(F)F)CC3)C2=O)c(C)c1` (stereo not shown) [Compound T112], for which the pest or weed control at 250 g/ha in experiment [1] amounted to 30%; in experiment [2], 20%; in experiment [3] it was 30%; in experiment [4], 40%; in experiment [5], 30%; in experiment [6] it was 30%. The values for the pest or weed control at 250 g/ha in experiment [7] and in experiment [8] were 50% and 40%, respectively.
As to `Cc1cc(C)c(C2C(=O)CC(CC3CCN(C(=O)CC(C)C)CC3)C2=O)c(C)c1` (stereo not shown) [Compound T113], the pest or weed control at 250 g/ha is 100% in experiment [1]; 70% in experiment [2]; 70% in experiment [3]; 90% in experiment [4]; 90% in experiment [5]; 100% in experiment [6]. The pest or weed control at 250 g/ha in experiment [7] stood at 70%; in experiment [8], 60%.
On to `Cc1cc(C)c(C2C(=O)CC(CC3CCN(C(=O)C4CCCC4)CC3)C2=O)c(C)c1` (stereo not shown) [Compound T114], for which the pest or weed control at 250 g/ha was 50% in experiment [1]; 20% in experiment [2]; 30% in experiment [3]; 40% in experiment [4]; 60% in experiment [5]; 40% in experiment [6]. Also, the values for the pest or weed control at 250 g/ha in experiment [7] and in experiment [8] were 40% and 50%, respectively.
Take `Cc1cc(C)c(C2C(=O)CC(CC3CCN(C(=O)c4c(C)noc4C)CC3)C2=O)c(C)c1` (stereo not shown) [Compound T118]: the pest or weed control at 250 g/ha amounted to 30% in experiment [1]; 20% in experiment [2]; 40% in experiment [3]; 60% in experiment [4]; 30% in experiment [5]; 80% in experiment [6]. For the same compound, the pest or weed control at 250 g/ha in experiment [7] and in experiment [8] was 40% in each case.
